Measured values published in US8907089B2, “Fused heterocyclic ring derivative and use thereof” (Takeda Pharmaceutical Company Limited, priority 2009, dated 2014).

test system: NIH-3T3/Gli reporter cells (Hedgehog signal, Gli reporter luciferase; Smo inhibitory action); experiment: Gli reporter luciferase assay in NIH-3T3/Gli reporter cells stimulated with mouse Shh-N end fragment; format: cell-based; conditions: NIH3T3; 1 μM compound; NIH-3T3/Gli reporter cells with mouse Shh-N end fragment culture supernatant, 48 hr; luciferase activity, control without compound as 100; read-out: inhibition rate (%) at 1 μM
From the text: Inhibition of the Hedgehog signal transduction system can be measured, for example, by quantifying a decrease in the expression level of a reporter gene connected to the downstream of the Gli binding site based on the fluorescence intensity according to the following Experimental Example 1. Alternatively, it can be measured by quantifying the expression of Gli-1 mRNA in a cell extract by quantitative PCR method and the like. A compound that inhibits Hedgehog signal targets Smo, which can be confirmed, for example, by binding fluorescence-labeled Cyclopamine and a test compound to cells expressing Smo, measuring the fluorescence level of the cell, and comparing the value with that without addition of a test compound to find a decrease.
Gli reporter plasmid was constructed by inserting 8×Gli-binding site and chicken 8-crystalline promoter into the upstream of luc+ of pGL3 (Promega).
prepared in reference to the base sequence described in GenBank accession No.; X02187, and chicken genome DNA (Clontech) as a template. PCR reaction was performed using Pfu Turbo (Stratagene) and following the attached protocol. The obtained 108 bp fragment was digested with restriction enzymes BglII and HindIII, and inserted into BglII-HindIII site of pGL3 to give plasmid pGL3/δ-cry promoter.
As 8×Gli-binding site, a sequence containing eight 9-bp Gli bound consensus sequences (GACCACCCA) described in Yoon et al., J. Biol. Chem., vol. 273, pages 3496-3501 (1998) was prepared from synthetic DNA. That is, two synthetic DNAs,
were heat treated at 95° C. for 2 minutes, and incubated at 37° C. for 1 hr for annealing to give a double stranded DNA of the above-mentioned two synthetic DNAs. The obtained double stranded DNA was digested with restriction enzymes BglII and KpnI, and the obtained DNA fragment was inserted into BglII-KpnI site of pGL3/8-cry promoter to construct plasmid pGL3/8-cry promoter, 8×Gli binding site, i.e., Gli reporter plasmid. 2. Construction of plasmid for expression of mouse Shh-N end Fragment
HEK293 cells were grown in D-MEM medium (Invitrogen) containing 10% fetal bovine serum in a 10 cm dish and pcDNA3.1/mShh-N was introduced into the cells using FuGENE6 (Roche Applied Science). Thereafter, the HEK293 cells were cultured in a carbon dioxide gas incubator at 37° C. for 24 hours, and the medium was exchanged with D-MEM medium (Invitrogen) containing 2% fetal bovine serum. After culturing for 48 hr, a culture supernatant containing recombinant type mouse Shh-N end fragment was obtained by filtration using a filter ([…]).
Using D-MEM (Invitrogen) containing 10% fetal bovine serum, expression plasmid pcDNA3.1 and Gli reporter plasmid (pGL3/8-cry promoter, 8×Gli binding site) produced by the method of Experimental Example 1 were introduced into NIH-3T3 cells grown in a 10 cm dish by the use of FuGENE6 (Roche Applied Science).
After culture for 24 hr, the cells were recovered, suspended in D-MEM medium containing 10% fetal bovine serum and supplemented with Geneticin (Life Technologies Oriental, Inc.) to a final concentration of 500 μg/ml, diluted to 10^4 cells/ml, plated on a 96 well plate, and cultured in a carbon dioxide gas incubator at 37° C. to give Geneticin resistant transformed cell line.
The obtained transformed cell line was cultured in a 96 well plate, mouse Shh-N end fragment obtained in Experimental Example 3 was added, and NIH-3T3/Gli reporter cell, which is a cell line capable of induction of luciferase expression, was selected.
NIH-3T3/Gli reporter cells cultured in D-MEM (Invitrogen) containing 10% fetal bovine serum were plated in a 96 well white plate at 1×10^4 cells/well, and cultured overnight in a carbon dioxide gas incubator at 37° C. The medium was removed, a compound (50 μl) and culture supernatant of mouse Shh-N end fragment-expressing HEK293 (D-MEM medium containing 2% fetal bovine serum, 50 μl) were added, and the cells were cultured for 48 hr in a carbon dioxide gas incubator at 37° C. […]

Compound	inhibition at 1 µM
CCc1cc2c(c(OCC(F)(F)F)c(C(=O)NC3CCN(C(=O)CO)CC3)n2C)c(=O)n1-c1cccc(F)c1 [Example 15, 6-ethyl-5-(3-fluorophenyl)-N-[1-(hydroxyacetyl)piperidin-4-yl]-1-methyl-4-oxo-3-(2,2,2-trifluoroethoxy)-4,5-dihydro-1H-pyrrolo[3,2-c]pyridine-2-carboxamide]	99%
CCc1cc2c(c(OCC(F)(F)F)c(C(=O)NC3CCN(C(=O)CO)CC3)n2C)c(=O)n1-c1ccc(C(F)(F)F)cc1 [Example 9, 6-ethyl-N-[1-(hydroxyacetyl)piperidin-4-yl]-1-methyl-4-oxo-3-(2,2,2-trifluoroethoxy)-5-[4-(trifluoromethyl)phenyl]-4,5-dihydro-1H-pyrrolo[3,2-c]pyridine-2-carboxamide]	97%
Cc1ccc(-n2c(C)cc3c(c(OCC(F)(F)F)c(C(=O)NC4CCN(C(=O)CO)CC4)n3C)c2=O)cc1 [Example 8, N-[1-(hydroxyacetyl)piperidin-4-yl]-1,6-dimethyl-5-(4-methylphenyl)-4-oxo-3-(2,2,2-trifluoroethoxy)-4,5-dihydro-1H-pyrrolo[3,2-c]pyridine-2-carboxamide]	97%
CCc1cc2c(c(OC(C)C)c(C(=O)NC3CCN(C(=O)CO)CC3)n2C)c(=O)n1-c1ccc(C(F)(F)F)cc1 [Example 11, 6-ethyl-N-[1-(hydroxyacetyl)piperidin-4-yl]-1-methyl-3-(1-methylethoxy)-4-oxo-5-[4-(trifluoromethyl)phenyl]-4,5-dihydro-1H-pyrrolo[3,2-c]pyridine-2-carboxamide]	96%
CCOc1c(C(=O)NC2CCN(C(=O)CO)CC2)n(C)c2cc(CC)n(-c3ccc(C(F)(F)F)cc3)c(=O)c12 [Example 10, 3-ethoxy-6-ethyl-N-[1-(hydroxyacetyl)piperidin-4-yl]-1-methyl-4-oxo-5-[4-(trifluoromethyl)phenyl]-4,5-dihydro-1H-pyrrolo[3,2-c]pyridine-2-carboxamide]	96%
CCc1cc2c(c(OCC(F)(F)F)c(C(=O)NC3CCN(C(=O)CO)CC3)n2C)c(=O)n1-c1ccccc1 [Example 1, 6-ethyl-N-[1-(hydroxyacetyl)piperidin-4-yl]-1-methyl-4-oxo-5-phenyl-3-(2,2,2-trifluoroethoxy)-4,5-dihydro-1H-pyrrolo[3,2-c]pyridine-2-carboxamide]	98%
CCc1cc2c(c(OC(C)C)c(C(=O)NC3CCN(C(=O)CO)CC3)n2C)c(=O)n1-c1ccc(OC)cc1 [Example 14, 6-ethyl-N-[1-(hydroxyacetyl)piperidin-4-yl]-5-(4-methoxyphenyl)-1-methyl-3-(1-methylethoxy)-4-oxo-4,5-dihydro-1H-pyrrolo[3,2-c]pyridine-2-carboxamide]	96%
CCc1cc2c(c(OCC(F)(F)F)c(C(=O)NC3CCN(C(=O)CO)CC3)n2C)c(=O)n1-c1ccc(F)cc1 [Example 20, 6-ethyl-5-(4-fluorophenyl)-N-[1-(hydroxyacetyl)piperidin-4-yl]-1-methyl-4-oxo-3-(2,2,2-trifluoroethoxy)-4,5-dihydro-1H-pyrrolo[3,2-c]pyridine-2-carboxamide]	96%
CCOc1c(C(=O)NC2CCN(C(=O)CO)CC2)n(C)c2cc(CC)n(-c3cccc(F)c3)c(=O)c12 [Example 16, 3-ethoxy-6-ethyl-5-(3-fluorophenyl)-N-[1-(hydroxyacetyl)piperidin-4-yl]-1-methyl-4-oxo-4,5-dihydro-1H-pyrrolo[3,2-c]pyridine-2-carboxamide]	96%
CCOc1c(C(=O)NC2CCN(C(=O)CO)CC2)n(C)c2cc(CC)n(-c3ccc(F)cc3)c(=O)c12 [Example 21, 3-ethoxy-6-ethyl-5-(4-fluorophenyl)-N-[1-(hydroxyacetyl)piperidin-4-yl]-1-methyl-4-oxo-4,5-dihydro-1H-pyrrolo[3,2-c]pyridine-2-carboxamide]	96%
CCc1cc2c(c(OC(C)C)c(C(=O)NC3CCN(C(=O)CO)CC3)n2C)c(=O)n1-c1ccccc1 [Example 4, 6-ethyl-N-[1-(hydroxyacetyl)piperidin-4-yl]-1-methyl-3-(1-methylethoxy)-4-oxo-5-phenyl-4,5-dihydro-1H-pyrrolo[3,2-c]pyridine-2-carboxamide]	97%
CCOc1c(C(=O)NC2CCN(C(=O)CO)CC2)n(C)c2cc(CC)n(-c3ccccc3)c(=O)c12 [Example 3, 3-ethoxy-6-ethyl-N-[1-(hydroxyacetyl)piperidin-4-yl]-1-methyl-4-oxo-5-phenyl-4,5-dihydro-1H-pyrrolo[3,2-c]pyridine-2-carboxamide]	97%
CCc1cc2c(c(OCC(F)(F)F)c(C(=O)NC3CCN(C(=O)CO)CC3)n2C)c(=O)n1-c1ccc(OC)cc1 [Example 12, 6-ethyl-N-[1-(hydroxyacetyl)piperidin-4-yl]-5-(4-methoxyphenyl)-1-methyl-4-oxo-3-(2,2,2-trifluoroethoxy)-4,5-dihydro-1H-pyrrolo[3,2-c]pyridine-2-carboxamide]	97%
CCOc1c(C(=O)NC2CCN(C(=O)CO)CC2)n(C)c2cc(CC)n(-c3ccc(OC)cc3)c(=O)c12 [Example 13, 3-ethoxy-6-ethyl-N-[1-(hydroxyacetyl)piperidin-4-yl]-5-(4-methoxyphenyl)-1-methyl-4-oxo-4,5-dihydro-1H-pyrrolo[3,2-c]pyridine-2-carboxamide]	97%
CCc1cc2c(c(OC(C)C)c(C(=O)NC3CCN(C(=O)CO)CC3)n2C)c(=O)n1-c1cccc(F)c1 [Example 17, 6-ethyl-5-(3-fluorophenyl)-N-[1-(hydroxyacetyl)piperidin-4-yl]-1-methyl-3-(1-methylethoxy)-4-oxo-4,5-dihydro-1H-pyrrolo[3,2-c]pyridine-2-carboxamide]	95%
CCc1cc2c(c(OC(C)C)c(C(=O)NC3CCN(C(=O)CO)CC3)n2C)c(=O)n1-c1ccc(F)cc1 [Example 22, 6-ethyl-5-(4-fluorophenyl)-N-[1-(hydroxyacetyl)piperidin-4-yl]-1-methyl-3-(1-methylethoxy)-4-oxo-4,5-dihydro-1H-pyrrolo[3,2-c]pyridine-2-carboxamide]	97%
